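How tested: cells in 96-well plates exposed to compound for 48 hours at five concentrations. At the GI50, growth is halved.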 Activity calls are given as the source filed them. No stated cut-off is given here; in the data, active = GI50 up to about 1.1 µM and inactive = higher.
Columns and labels:
Experiment in all cases: NCI-60 cell line screen, 48 h
MCF7 = system: MCF7
HOP-92 = system: HOP-92
A498 = system: A498
SF-268 = system: SF-268
KM12 = system: KM12
NCI-H460 = system: NCI-H460
SK-MEL-5 = system: SK-MEL-5
OVCAR-5 = system: OVCAR-5
TK-10 = system: TK-10
MOLT-4 = system: MOLT-4
HOP-62 = system: HOP-62
SNB-75 = system: SNB-75
Hs-578T = system: Hs-578T
786-0 = system: 786-0
K562 = system: K562
IGROV-1 = system: IGROV-1
MDA-N = system: MDA-N
SF-539 = system: SF-539
RPMI-8226 = system: RPMI-8226
OVCAR-4 = system: OVCAR-4

Row | SMILES | GI50 (MCF7) | GI50 (HOP-92) | GI50 (A498) | GI50 (SF-268) | GI50 (KM12) | GI50 (NCI-H460) | GI50 (SK-MEL-5) | GI50 (OVCAR-5) | GI50 (TK-10) | GI50 (MOLT-4) | GI50 (HOP-62) | GI50 (SNB-75) | GI50 (Hs-578T) | GI50 (786-0) | GI50 (K562) | GI50 (IGROV-1) | GI50 (MDA-N) | GI50 (SF-539) | GI50 (RPMI-8226) | GI50 (OVCAR-4)
1 | COc1cc(-c2[o+]c3cc(O)cc(O)c3cc2O)cc(O)c1O | 21.3 µM (inactive) | > 100 µM (inactive) | > 100 µM (inactive) | > 100 µM (inactive) | > 100 µM (inactive) | > 100 µM (inactive) | > 100 µM (inactive) | > 100 µM (inactive) | > 100 µM (inactive) | > 100 µM (inactive) | > 100 µM (inactive) | > 100 µM (inactive) | > 100 µM (inactive) | > 100 µM (inactive) | > 100 µM (inactive) | > 100 µM (inactive) | 34.8 µM (inactive) | > 100 µM (inactive) | > 100 µM (inactive) | 60 µM (inactive)
2 | CCCCC(=O)OC[n+]1ccc(-c2c(COC(=O)NC(C)C)c(COC(=O)NC(C)C)c3n2CCC3)cc1 | 50.8 µM (inactive) | > 84.1 µM (inactive) | 23.9 µM (inactive) | 57.9 µM (inactive) | > 100 µM (inactive) | 42.3 µM (inactive) | > 100 µM (inactive) | > 100 µM (inactive) | > 100 µM (inactive) | 19.5 µM (inactive) | > 59.6 µM (inactive) | 60.3 µM (inactive) | > 100 µM (inactive) | 39.4 µM (inactive) | > 90.8 µM (inactive) | > 100 µM (inactive) | > 100 µM (inactive) | 40.4 µM (inactive) | > 68.7 µM (inactive) | > 100 µM (inactive)
3 | COc1ccc(/C=C2\CCC(CN3CCOCC3)C2=O)cc1 (stereo not given) | 2.38 µM (inactive) | 2.52 µM (inactive) | 9.44 µM (inactive) | 6.76 µM (inactive) | 5.65 µM (inactive) | 17.8 µM (inactive) | 4.62 µM (inactive) | 9.06 µM (inactive) | 3.57 µM (inactive) | 1.83 µM (inactive) | 10.5 µM (inactive) | 4.68 µM (inactive) | 3.04 µM (inactive) | 1.65 µM (inactive) | 1.03 µM (active) | 4 µM (inactive) | 2.79 µM (inactive) | 5.92 µM (inactive) | 0.552 µM (active) | 5.96 µM (inactive)
4 | CC(=O)NC1C(O)C(O)C(CO)OC1n1nc(SCc2ccccc2)c(=O)[nH]c1=O (stereo not given) | > 100 µM (inactive) | > 100 µM (inactive) | > 100 µM (inactive) | > 100 µM (inactive) | > 100 µM (inactive) | > 100 µM (inactive) | > 100 µM (inactive) | > 100 µM (inactive) | > 100 µM (inactive) | > 100 µM (inactive) | > 100 µM (inactive) | > 65 µM (inactive) | > 100 µM (inactive) | > 100 µM (inactive) | > 100 µM (inactive) | > 100 µM (inactive) | > 100 µM (inactive) | > 100 µM (inactive) | > 100 µM (inactive) | > 100 µM (inactive)
5 | COc1ccc2cc(NC(=O)Nn3cnnc3)ccc2c1 | > 100 µM (inactive) | > 100 µM (inactive) | > 100 µM (inactive) | > 100 µM (inactive) | 92.5 µM (inactive) | > 100 µM (inactive) | > 100 µM (inactive) | > 100 µM (inactive) | > 100 µM (inactive) | > 100 µM (inactive) | > 100 µM (inactive) | 12.7 µM (inactive) | > 100 µM (inactive) | > 100 µM (inactive) | > 100 µM (inactive) | > 100 µM (inactive) | > 100 µM (inactive) | > 100 µM (inactive) | > 100 µM (inactive) | > 100 µM (inactive)
6 | O=C(/C=C/c1ccccc1Br)c1ccccc1 | 0.427 µM (active) | 16.7 µM (inactive) | 3.39 µM (inactive) | 3.58 µM (inactive) | 2.14 µM (inactive) | 4.37 µM (inactive) | 9.31 µM (inactive) | 16.1 µM (inactive) | 2.17 µM (inactive) | 2.84 µM (inactive) | 13.4 µM (inactive) | 12 µM (inactive) | 5.02 µM (inactive) | 2.07 µM (inactive) | 1.94 µM (inactive) | 2.99 µM (inactive) | 6.71 µM (inactive) | 4.1 µM (inactive) | 3.01 µM (inactive) | 1.77 µM (inactive)
7 | O=c1c2ccccc2n2cnc3ccc(NCCNCCO)c1c32 | 2.52 µM (inactive) | 4.24 µM (inactive) | 1.71 µM (inactive) | 1.46 µM (inactive) | 1.17 µM (inactive) | 0.536 µM (active) | 1.88 µM (inactive) | 2.02 µM (inactive) | 2.92 µM (inactive) | 0.359 µM (active) | 1.4 µM (inactive) | 1.86 µM (inactive) | 2.37 µM (inactive) | 0.889 µM (active) | 1.34 µM (inactive) | 1.91 µM (inactive) | 1.9 µM (inactive) | 3.24 µM (inactive) | 2.2 µM (inactive) | 1.44 µM (inactive)
8 | c1ccc2c3c([nH]c2c1)C1CCCN1CC3 (stereo not given) | > 10 µM (inactive) | > 10 µM (inactive) | > 10 µM (inactive) | > 10 µM (inactive) | > 10 µM (inactive) | > 10 µM (inactive) | > 10 µM (inactive) | > 10 µM (inactive) | > 10 µM (inactive) | > 10 µM (inactive) | > 10 µM (inactive) | > 10 µM (inactive) | > 10 µM (inactive) | > 10 µM (inactive) | > 10 µM (inactive) | > 10 µM (inactive) | > 10 µM (inactive) | > 10 µM (inactive) | > 10 µM (inactive) | > 10 µM (inactive)
9 | C=C(CN(C)C)C(=O)c1ccc(OC2OC(COC(C)=O)C(OC(C)=O)C(OC(C)=O)C2OC(C)=O)cc1 (stereo not given) | 1.77 µM (inactive) | 0.581 µM (active) | 14.1 µM (inactive) | 19.7 µM (inactive) | 17.6 µM (inactive) | 20.1 µM (inactive) | 6.37 µM (inactive) | 16.5 µM (inactive) | 3.39 µM (inactive) | 0.54 µM (active) | 15.3 µM (inactive) | 11.4 µM (inactive) | 19.7 µM (inactive) | 2.24 µM (inactive) | 0.533 µM (active) | 13.4 µM (inactive) | 3.03 µM (inactive) | 10.1 µM (inactive) | 2.88 µM (inactive) | 3.75 µM (inactive)

Source: ChEMBL document CHEMBL1201862, “PubChem BioAssay data set” (2004)
